Test results reported in US12343350B2, “Istaroxime-containing intravenous formulation for the treatment of acute heart failure (AHF)” (Windtree Therapeutics, Inc., priority 2019, dated 2025).

Key:
SERCA2a = SERCA2a (Canis lupus familiaris (Dog) (Canis familiaris), UniProt O46674); assay: SERCA2a ATPase activity in SR preparations from failing dog; assay type: biochemical; conditions: data not shown
Experimental: Male beagle dogs were used for obtaining cardiac tissues for SERCA2a-enriched sarcoplasmic reticulum preparations. Healthy dogs were utilized for obtaining the data in Table 3. Chronic heart failure was induced in dogs by multiple intracoronary microembolizations with polystyrene latex microspheres ([…], Polysciences, Warrington, PA, USA) as described previously (see Sabbah H N et al., Am J Physiol. 1991; 260:H1379-84). The experiments were conducted in the General Pharmacology Department of Sigma-Tau, Rome, Italy. […]
SERCA2a activity was measured in vitro as ^32P-ATP hydrolysis at different Ca2^+ concentrations (100 to 3000 nM) in the absence and presence of the tested compounds as described previously (see Micheletti R. et al., Am J Card 2007; 99:24A-32A). […] The ATP hydrolysis was continued for 15 min at 37° C. and was stopped by acidification with 100 μl of 20% v/v ice-cold perchloric acid. ^32P was separated by centrifugation with activated charcoal (Norit A, SERVA) and the radioactivity was measured. […]
Dose-response curves were fitted by using a sigmoidal curve fitting software and the maximal velocity (Vmax) activity and the Kd Ca2^+ were calculated (Synergy Software KaleidaGraph 3.6). […]

[1] = system: mouse (Albino Swiss CD-1); assay: Acute toxicity (LD50) in mouse; assay type: in vivo; conditions: single administration
Experimental: Acute toxicity has been determined in the mouse (Albino Swiss CD-1, body weight 30 g). Mice were orally treated, or intravenously injected, with single administration of increasing doses of the test substance to identify the dose causing 50% mortality. Mortality occurred within 30 min after the administration and survival after 24 h. The acute toxicity (LD50) was then assessed.
The acute toxicity of the tested compound PST 3093 was determined in the mouse (Albino Swiss CD-1, body weight 30 g). Compound PST 3093 was orally administered or intravenously injected at increasing doses to identify the dose causing 50% mortality. Mortality occurred within 30 min after the administration and survival after 24 h.

SERCA2a, sequence (O46674 whole entry): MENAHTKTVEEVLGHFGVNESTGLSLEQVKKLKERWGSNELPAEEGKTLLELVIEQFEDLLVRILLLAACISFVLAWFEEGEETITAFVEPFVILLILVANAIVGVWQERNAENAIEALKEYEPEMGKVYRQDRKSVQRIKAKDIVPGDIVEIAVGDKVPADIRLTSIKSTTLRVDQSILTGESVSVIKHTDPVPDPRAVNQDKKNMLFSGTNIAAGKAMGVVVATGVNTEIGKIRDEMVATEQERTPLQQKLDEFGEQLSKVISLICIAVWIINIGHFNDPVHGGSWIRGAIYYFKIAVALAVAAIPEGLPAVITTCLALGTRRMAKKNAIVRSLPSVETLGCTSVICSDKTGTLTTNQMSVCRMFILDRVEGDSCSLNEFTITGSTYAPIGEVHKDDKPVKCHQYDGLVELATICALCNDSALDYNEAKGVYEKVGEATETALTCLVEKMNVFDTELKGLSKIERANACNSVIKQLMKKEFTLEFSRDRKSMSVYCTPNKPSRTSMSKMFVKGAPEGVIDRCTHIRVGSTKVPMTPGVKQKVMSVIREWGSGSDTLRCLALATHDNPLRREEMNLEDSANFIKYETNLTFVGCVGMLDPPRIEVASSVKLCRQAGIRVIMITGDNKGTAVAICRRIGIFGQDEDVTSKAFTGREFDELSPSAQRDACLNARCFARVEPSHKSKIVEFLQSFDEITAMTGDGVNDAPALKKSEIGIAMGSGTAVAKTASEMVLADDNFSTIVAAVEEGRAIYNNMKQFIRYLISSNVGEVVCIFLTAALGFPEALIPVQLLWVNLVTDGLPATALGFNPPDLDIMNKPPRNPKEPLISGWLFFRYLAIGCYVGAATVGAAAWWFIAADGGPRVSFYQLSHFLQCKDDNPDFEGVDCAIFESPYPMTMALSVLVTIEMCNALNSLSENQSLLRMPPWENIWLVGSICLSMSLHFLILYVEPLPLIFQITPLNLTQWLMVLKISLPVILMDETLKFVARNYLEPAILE

C[C@]12CCC(=NOCCN)C[C@@H]1C(=O)C[C@@H]1[C@@H]2CC[C@]2(C)C(=O)CC[C@@H]12 [Istaroxime, (3Z,5a)-3-[(2-aminoethoxy)imino]androstane-6,17-dione]
SERCA2a activation (SERCA2a): particularly evident

C[C@]12CCC(=NOCC(=O)O)CC1[C@H](O)CC1C2CC[C@]2(C)C(=O)CCC12 (stereo partly drawn) [PST 3093, (E,Z)-[(6-beta-hydroxy-17-oxoandrostan-3-ylidene)amino]oxyacetic acid]
LD50 ([1]; i.v.): >250 mg/kg | LD50 ([1]; os (oral)): >200 mg/kg
